Experimental data reported in patent US12043632B2, “6-heteroaryloxy benzimidazoles and azabenzimidazoles as JAK2 inhibitors” (Ajax Therapeutics, Inc., priority 2020, dated 2024).

Target: T1, JAK2 (JH1domain-catalytic, Y1007F,Y1008F) kinase (Homo sapiens, UniProt O60674, Y1007F/Y1008F)
T1 construct: JAK2 (JH1domain-catalytic, Y1007F,Y1008F) kinase was expressed as N-terminal fusion; made in house; host or cells: transiently transfected HEK293 cells
Assay: JAK2 JH1 Domain Binding Assay
Conditions: qPCR readout

T1 sequence (O60674 849-1124 Y1007F/Y1008F limits assumed): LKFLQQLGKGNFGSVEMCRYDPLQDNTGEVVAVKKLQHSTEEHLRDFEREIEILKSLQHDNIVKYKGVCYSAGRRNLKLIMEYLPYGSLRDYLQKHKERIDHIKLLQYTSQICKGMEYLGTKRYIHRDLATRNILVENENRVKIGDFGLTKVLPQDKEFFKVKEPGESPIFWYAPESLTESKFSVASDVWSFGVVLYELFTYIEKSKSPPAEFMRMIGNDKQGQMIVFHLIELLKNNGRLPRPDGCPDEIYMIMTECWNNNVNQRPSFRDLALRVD

| Compound | Kd [nM] |
| --- | --- |
| CN1CC[C@H](n2nc(Nc3nc4ncc(Oc5cnc6sccc6c5)c(Cl)c4n3C)cc2C(C)(C)C)C1 [Example I-19, (S)—N-(5-(tert-butyl)-1-(1-methylpyrrolidin-3-yl)-1H-pyrazol-3-yl)-7-chloro-1-methyl-6-(thieno[2,3-b]pyridin-5-yloxy)-1H-imidazo[4,5-b]pyridin-2-amine] | 10 to 50 |
| CN1CC[C@@H](n2nc(Nc3nc4ncc(Oc5cnc6sccc6c5)c(Cl)c4n3C)cc2C(C)(C)C)C1 [Example I-20, (R)—N-(5-(tert-butyl)-1-(1-methylpyrrolidin-3-yl)-1H-pyrazol-3-yl)-7-chloro-1-methyl-6-(thieno[2,3-b]pyridin-5-yloxy)-1H-imidazo[4,5-b]pyridin-2-amine] | 50 to 1000 |
| CN1CC[C@@H](n2nc(Nc3nc4ncc(Oc5cnc6scnc6c5)c(Cl)c4n3C)cc2C(C)(C)C)C1 [Example I-27, (R)—N-(5-(tert-butyl)-1-(1-methylpyrrolidin-3-yl)-1H-pyrazol-3-yl)-7-chloro-1-methyl-6-(thiazolo[5,4-b]pyridin-6-yloxy)-1H-imidazo[4,5-b]pyridin-2-amine] | 10 to 50 |
| CN1CC[C@H](n2nc(Nc3nc4ncc(Oc5cnc6scnc6c5)c(Cl)c4n3C)cc2C(C)(C)C)C1 [Example I-28, (S)—N-(5-(tert-butyl)-1-(1-methylpyrrolidin-3-yl)-1H-pyrazol-3-yl)-7-chloro-1-methyl-6-(thiazolo[5,4-b]pyridin-6-yloxy)-1H-imidazo[4,5-b]pyridin-2-amine] | 10 to 50 |
| Cn1c(Nc2cc(C(C)(C)C)n([C@H]3CCN(CCF)C3)n2)nc2ncc(Oc3cnn4ccncc34)c(Cl)c21 [Example I-29, (S)—N-(5-(tert-butyl)-1-(1-(2-fluoroethyl)pyrrolidin-3-yl)-1H-pyrazol-3-yl)-7-chloro-1-methyl-6-(pyrazolo[1,5-a]pyrazin-3-yloxy)-1H-imidazo[4,5-b]pyridin-2-amine] | < 10 |
| Cn1c(Nc2cc(C(C)(C)C)n([C@@H]3CCN(CCF)C3)n2)nc2ncc(Oc3cnn4ccncc34)c(Cl)c21 [Example I-30, (R)—N-(5-(tert-butyl)-1-(1-(2-fluoroethyl)pyrrolidin-3-yl)-1H-pyrazol-3-yl)-7-chloro-1-methyl-6-(pyrazolo[1,5-a]pyrazin-3-yloxy)-1H-imidazo[4,5-b]pyridin-2-amine] | < 10 |
| CN1CC[C@H](n2nc(Nc3nc4ncc(Oc5cnn6ccncc56)c(Cl)c4n3C)cc2C(C)(C)C)C1 [Example I-31, (S)—N-(5-(tert-butyl)-1-(1-methylpyrrolidin-3-yl)-1H-pyrazol-3-yl)-7-chloro-1-methyl-6-(pyrazolo[1,5-a]pyrazin-3-yloxy)-1H-imidazo[4,5-b]pyridin-2-amine] | < 10 |
| CN1CC[C@@H](n2nc(Nc3nc4ncc(Oc5cnn6ccncc56)c(Cl)c4n3C)cc2C(C)(C)C)C1 [Example I-32, (R)—N-(5-(tert-butyl)-1-(1-methylpyrrolidin-3-yl)-1H-pyrazol-3-yl)-7-chloro-1-methyl-6-(pyrazolo[1,5-a]pyrazin-3-yloxy)-1H-imidazo[4,5-b]pyridin-2-amine] | < 10 |
| Cn1c(Nc2cc(C(C)(C)C)n(CC(F)F)n2)nc2ncc(Oc3cnn4ccncc34)c(Cl)c21 [Example I-34, N-(5-(tert-butyl)-1-(2,2-difluoroethyl)-1H-pyrazol-3-yl)-7-chloro-1-methyl-6-(pyrazolo[1,5-a]pyrazin-3-yloxy)-1H-imidazo[4,5-b]pyridin-2-amine] | < 10 |
| CN1CC[C@H](n2nc(Nc3nc4ncc(Oc5cnc6scnc6c5)c(C(F)F)c4n3C)cc2C(C)(C)C)C1 [Example I-39, (S)—N-(5-(tert-butyl)-1-(1-methylpyrrolidin-3-yl)-1H-pyrazol-3-yl)-7-(difluoromethyl)-1-methyl-6-(thiazolo[5,4-b]pyridin-6-yloxy)-1H-imidazo[4,5-b]pyridin-2-amine] | 10 to 50 |
| CN1CC[C@@H](n2nc(Nc3nc4ncc(Oc5cnc6scnc6c5)c(C(F)F)c4n3C)cc2C(C)(C)C)C1 [Example I-40, (R)—N-(5-(tert-butyl)-1-(1-methylpyrrolidin-3-yl)-1H-pyrazol-3-yl)-7-(difluoromethyl)-1-methyl-6-(thiazolo[5,4-b]pyridin-6-yloxy)-1H-imidazo[4,5-b]pyridin-2-amine] | 10 to 50 |
| Cn1c(Nc2cc(C(C)(C)C)n([C@H]3CCN(CCF)C3)n2)nc2ncc(Oc3cnn4ccncc34)c(C(F)F)c21 [Example I-43, (S)—N-(5-(tert-butyl)-1-(1-(2-fluoroethyl)pyrrolidin-3-yl)-1H-pyrazol-3-yl)-7-(difluoromethyl)-1-methyl-6-(pyrazolo[1,5-a]pyrazin-3-yloxy)-1H-imidazo[4,5-b]pyridin-2-amine] | 10 to 50 |
| Cn1c(Nc2cc(C(C)(C)C)n([C@@H]3CCN(CCF)C3)n2)nc2ncc(Oc3cnn4ccncc34)c(C(F)F)c21 [Example I-44, (R)—N-(5-(tert-butyl)-1-(1-(2-fluoroethyl)pyrrolidin-3-yl)-1H-pyrazol-3-yl)-7-(difluoromethyl)-1-methyl-6-(pyrazolo[1,5-a]pyrazin-3-yloxy)-1H-imidazo[4,5-b]pyridin-2-amine] | 50 to 1000 |
| COc1c(Oc2cnc3sccc3c2)cnc2nc(Nc3cc(C(C)(C)C)n([C@H]4CCN(C)C4)n3)n(C)c12 [Example I-45, (S)—N-(5-(tert-butyl)-1-(1-methylpyrrolidin-3-yl)-1H-pyrazol-3-yl)-7-methoxy-1-methyl-6-(thieno[2,3-b]pyridin-5-yloxy)-1H-imidazo[4,5-b]pyridin-2-amine] | 10 to 50 |
| COc1c(Oc2cnc3sccc3c2)cnc2nc(Nc3cc(C(C)(C)C)n([C@@H]4CCN(C)C4)n3)n(C)c12 [Example I-46, (R)—N-(5-(tert-butyl)-1-(1-methylpyrrolidin-3-yl)-1H-pyrazol-3-yl)-7-methoxy-1-methyl-6-(thieno[2,3-b]pyridin-5-yloxy)-1H-imidazo[4,5-b]pyridin-2-amine] | 50 to 1000 |

The next lines start with the values.

| Kd [nM] | Compound |
| --- | --- |
| 10 to 50 | Cn1c(Nc2cc(C(C)(C)C#N)n([C@H]3CCOC3)n2)nc2ncc(Oc3cnc4ccnn4c3)c(Cl)c21 [Example I-17, (S)-2-(3-((7-chloro-1-methyl-6-(pyrazolo[1,5-a]pyrimidin-6-yloxy)-1H-imidazo[4,5-b]pyridin-2-yl)amino)-1-(tetrahydrofuran-3-yl)-1H-pyrazol-5-yl)-2-methylpropanenitrile] |
| 10 to 50 | Cn1c(Nc2cc(C(C)(C)C#N)n([C@@H]3CCOC3)n2)nc2ncc(Oc3cnc4ccnn4c3)c(Cl)c21 [Example I-18, (R)-2-(3-((7-chloro-1-methyl-6-(pyrazolo[1,5-a]pyrimidin-6-yloxy)-1H-imidazo[4,5-b]pyridin-2-yl)amino)-1-(tetrahydrofuran-3-yl)-1H-pyrazol-5-yl)-2-methylpropanenitrile] |
| < 10 | Cn1c(Nc2cc(C(C)(C)C)n([C@@H]3CCOC3)n2)nc2ncc(Oc3cnn4ccncc34)c(Cl)c21 [Example I-21, (R)—N-(5-(tert-butyl)-1-(tetrahydrofuran-3-yl)-1H-pyrazol-3-yl)-7-chloro-1-methyl-6-(pyrazolo[1,5-a]pyrazin-3-yloxy)-1H-imidazo[4,5-b]pyridin-2-amine] |
| < 10 | Cn1c(Nc2cc(C(C)(C)C)n([C@H]3CCOC3)n2)nc2ncc(Oc3cnn4ccncc34)c(Cl)c21 [Example I-22, (S)—N-(5-(tert-butyl)-1-(tetrahydrofuran-3-yl)-1H-pyrazol-3-yl)-7-chloro-1-methyl-6-(pyrazolo[1,5-a]pyrazin-3-yloxy)-1H-imidazo[4,5-b]pyridin-2-amine] |
| 10 to 50 | Cn1c(Nc2cc(C(C)(C)C)n([C@H]3CCN(CCF)C3)n2)nc2ncc(Oc3cnn4ccnc4c3)c(Cl)c21 [Example I-25, (S)—N-(5-(tert-butyl)-1-(1-(2-fluoroethyl)pyrrolidin-3-yl)-1H-pyrazol-3-yl)-7-chloro-6-(imidazo[1,2-b]pyridazin-7-yloxy)-1-methyl-1H-imidazo[4,5-b]pyridin-2-amine] |
| 50 to 1000 | Cn1c(Nc2cc(C(C)(C)C)n([C@@H]3CCN(CCF)C3)n2)nc2ncc(Oc3cnn4ccnc4c3)c(Cl)c21 [Example I-26, (R)—N-(5-(tert-butyl)-1-(1-(2-fluoroethyl)pyrrolidin-3-yl)-1H-pyrazol-3-yl)-7-chloro-6-(imidazo[1,2-b]pyridazin-7-yloxy)-1-methyl-1H-imidazo[4,5-b]pyridin-2-amine] |
| 10 to 50 | Cn1c(Nc2cc(C(C)(C)C)n(C3CC4(COC4)C3)n2)nc2ncc(Oc3cnn4ccnc4c3)c(Cl)c21 [Example I-33, N-(5-(tert-butyl)-1-(2-oxaspiro[3.3]heptan-6-yl)-1H-pyrazol-3-yl)-7-chloro-6-(imidazo[1,2-b]pyridazin-7-yloxy)-1-methyl-1H-imidazo[4,5-b]pyridin-2-amine] |
| 10 to 50 | CN1CC[C@H](n2nc(Nc3nc4ncc(Oc5cnn6ccnc6c5)c(Cl)c4n3C)cc2C(C)(C)C)C1 [Example I-35, (S)—N-(5-(tert-butyl)-1-(1-methylpyrrolidin-3-yl)-1H-pyrazol-3-yl)-7-chloro-6-(imidazo[1,2-b]pyridazin-7-yloxy)-1-methyl-1H-imidazo[4,5-b]pyridin-2-amine] |
| 50 to 1000 | CN1CC[C@@H](n2nc(Nc3nc4ncc(Oc5cnn6ccnc6c5)c(Cl)c4n3C)cc2C(C)(C)C)C1 [Example I-36, (R)—N-(5-(tert-butyl)-1-(1-methylpyrrolidin-3-yl)-1H-pyrazol-3-yl)-7-chloro-6-(imidazo[1,2-b]pyridazin-7-yloxy)-1-methyl-1H-imidazo[4,5-b]pyridin-2-amine] |
| 10 to 50 | Cn1c(Nc2cc(C(C)(C)C)n(C3CC4(COC4)C3)n2)nc2ncc(Oc3cnc4ccnn4c3)c(Cl)c21 [Example I-42, N-(5-(tert-butyl)-1-(2-oxaspiro[3.3]heptan-6-yl)-1H-pyrazol-3-yl)-7-chloro-1-methyl-6-(pyrazolo[1,5-a]pyrimidin-6-yloxy)-1H-imidazo[4,5-b]pyridin-2-amine] |
| < 10 | Cn1c(Nc2cc(C(C)(C)C)n(C3CC4(COC4)C3)n2)nc2ncc(Oc3cnn4ccncc34)c(Cl)c21 [Example I-49, N-(5-(tert-butyl)-1-(2-oxaspiro[3.3]heptan-6-yl)-1H-pyrazol-3-yl)-7-chloro-1-methyl-6-(pyrazolo[1,5-a]pyrazin-3-yloxy)-1H-imidazo[4,5-b]pyridin-2-amine] |
